# Where two headings read alike, the source gives them in different places.
# What was measured:
# B.s. pol IIIC = B.s. pol IIIC (Bacillus subtilis, UniProt P13267); test: biochemical; assay type: biochemical
# Description: (§1) The ability of a test compound to inhibit the activity of DNA pol IIIC or pol IIIE enzymes can be tested by using a DNA polymerase assay as described, for example, in Barnes and Brown, Nucl. […] This rapid screening method can use natural or recombinant DNA pol III enzymes in a standard DNA polymerase activity assay. By including a test compound in a side-by-side assay with a control, the effect of the test compound on polymerase activity can be assessed.
# (§2) DNA pol III activity was assayed as described in Barnes et al., Nucl.
# (§3) Purified pol IIIC or pol IIIE was added to a buffered solution containing Mg^2+, DTT, glycerol, nicked calf thymus DNA, saturating concentrations of dATP, dCTP, dTTP and [^3H]-dTTP. Reaction mixtures were incubated at 30° C. for 10 min, quenched and filtered, and radioactivity in the acid-insoluble material measured by scintillation counting. Experiments were done in triplicate. Inhibitors were assayed by addition of several dilutions of a stock solution of inhibitor (DMSO or water, depending on solubility) before enzyme addition. […] The truncated assay, i.e., exclusion of the competitive substrate dGTP allows for the direct determination of apparent inhibitor constants (Ki) in this assay system.
# B.s. pol IIIE = B.s. pol IIIE (Bacillus subtilis, UniProt O34623); test: biochemical; assay type: biochemical
# Description: as §1, §2, §3
# E.c. pol IIIE = E.c. pol IIIE (Escherichia coli, UniProt P10443); test: biochemical
# Description: as §1, §2, §3
# Bacillus subtilis = test: Inhibition of bacterial growth (agar plate MIC), B.s.; assay type: cell-based; conditions: agar plates, 37° C., 24 hours; for MIC: Bacillus subtilis
# Description: (§4) Antimicrobial efficacy may be determined by standard methods of microbial culture in growth medium or on plates of agar supplemented with appropriate growth media. For example, microbes, e.g., mycoplasmata or Gram-positive or Gram-negative bacteria, are grown in the presence of serial dilutions of compounds in an appropriate vehicle, and, after a suitable period of growth, the microbial density is measured by visual or instrumental means. The concentration of compound at which no growth occurs is the minimum inhibitory concentration (MIC) of the compound. Test compounds with an appropriate level of growth inhibition are good candidate therapeutics for further evaluation.
# (§5) Each compound was assayed against a panel of Gram-positive Bacilli, Enterococci, and Staphylococci, and Gram-negative Escherichia coli, grown in appropriate plate media solidified with 1.3% agar-agar. […] One tenth mL of diluted bacteria containing 500-1000 colony-forming units (CFU) were plated and spread, and the plates were incubated at 37° C. for 24 hours. MIC (minimum inhibitory concentration) was equivalent to the lowest concentration at which growth, i.e. colony formation, was not observed.
# Staphylococcus aureus = test: Inhibition of bacterial growth (agar plate MIC), S.a.; assay type: cell-based; conditions: agar plates, 37° C., 24 hours; for MIC: Staphylococcus aureus
# Description: as §4, §5
# S.a. (Smith) = test: Inhibition of bacterial growth (agar plate MIC), S.a. (Smith); assay type: cell-based, Staphylococcus aureus; conditions: agar plates, 37° C., 24 hours; for MIC: Staphylococcus aureus
# Description: as §4, §5
# MRSA (B42876) = test: Inhibition of bacterial growth (agar plate MIC), MRSA (B42876); assay type: cell-based, methicillin-resistant S.a.; conditions: agar plates, 37° C., 24 hours; for MIC: Staphylococcus aureus, MRSA
# Description: as §4, §5
# Enterococcus fecalis = test: Inhibition of bacterial growth (agar plate MIC), E. fecalis; assay type: cell-based; conditions: agar plates, 37° C., 24 hours; for MIC: Enterococcus
# Description: as §4, §5
# Enterococcus fecium = test: Inhibition of bacterial growth (agar plate MIC), E. fecium; assay type: cell-based; conditions: agar plates, 37° C., 24 hours; for MIC: Enterococcus
# Description: as §4, §5
# [1] = tested on: vancomycin-resistant E. fecium; test: Inhibition of bacterial growth (agar plate MIC), VRE; assay type: cell-based, Enterococcus fecium; conditions: agar plates, 37° C., 24 hours; for MIC: Enterococcus, VRE
# Description: as §4, §5
# in vitro = in vitro ADME; conditions: human, Caco-2
# Text: Table 2 summarizes the results of cell membrane permeability assays of representative compounds of the invention. The assay utilizes CaCo2 cell culture monolayers, described by Artursson and Kalsson, Biochem. Biophys. Res.
# [2] = truncated assay without dGTP, apparent Ki, read-out: Ki, B.s. pol IIIC
# [3] = truncated assay without dGTP, apparent Ki, read-out: Ki, B.s. pol IIIE
# [4] = truncated assay without dGTP, apparent Ki
# Chain of E.c. pol IIIE (P10443 whole entry): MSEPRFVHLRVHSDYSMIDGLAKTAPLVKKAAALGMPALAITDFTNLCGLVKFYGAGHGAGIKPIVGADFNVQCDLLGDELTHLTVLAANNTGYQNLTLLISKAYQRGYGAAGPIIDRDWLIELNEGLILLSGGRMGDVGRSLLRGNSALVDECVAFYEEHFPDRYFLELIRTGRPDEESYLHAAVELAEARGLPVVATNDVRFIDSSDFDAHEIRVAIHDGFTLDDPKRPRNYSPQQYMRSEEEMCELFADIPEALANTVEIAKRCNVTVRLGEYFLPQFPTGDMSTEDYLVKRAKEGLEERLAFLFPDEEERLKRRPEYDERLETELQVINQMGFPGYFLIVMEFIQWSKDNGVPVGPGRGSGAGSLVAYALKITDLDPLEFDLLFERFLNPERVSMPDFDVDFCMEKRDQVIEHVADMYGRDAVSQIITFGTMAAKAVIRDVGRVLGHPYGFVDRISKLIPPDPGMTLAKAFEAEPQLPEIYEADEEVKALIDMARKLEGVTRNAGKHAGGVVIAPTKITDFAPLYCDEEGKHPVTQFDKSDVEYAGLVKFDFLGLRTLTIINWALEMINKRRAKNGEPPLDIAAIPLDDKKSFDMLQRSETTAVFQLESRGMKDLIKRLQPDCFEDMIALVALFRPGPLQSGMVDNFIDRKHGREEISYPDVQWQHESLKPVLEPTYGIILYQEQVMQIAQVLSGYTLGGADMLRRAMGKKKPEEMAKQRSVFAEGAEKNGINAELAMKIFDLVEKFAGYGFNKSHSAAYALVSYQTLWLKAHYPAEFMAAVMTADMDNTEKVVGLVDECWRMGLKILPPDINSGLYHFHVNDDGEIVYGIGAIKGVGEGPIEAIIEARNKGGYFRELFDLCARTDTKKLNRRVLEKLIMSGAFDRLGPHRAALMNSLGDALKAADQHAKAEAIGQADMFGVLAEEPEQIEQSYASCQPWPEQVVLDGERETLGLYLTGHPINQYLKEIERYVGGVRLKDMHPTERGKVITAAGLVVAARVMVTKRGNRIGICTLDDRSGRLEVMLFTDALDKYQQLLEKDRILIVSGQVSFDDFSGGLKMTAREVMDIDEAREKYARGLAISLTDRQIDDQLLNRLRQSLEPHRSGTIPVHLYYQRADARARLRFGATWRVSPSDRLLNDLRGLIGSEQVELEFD
# Chain of B.s. pol IIIC (P13267 whole entry): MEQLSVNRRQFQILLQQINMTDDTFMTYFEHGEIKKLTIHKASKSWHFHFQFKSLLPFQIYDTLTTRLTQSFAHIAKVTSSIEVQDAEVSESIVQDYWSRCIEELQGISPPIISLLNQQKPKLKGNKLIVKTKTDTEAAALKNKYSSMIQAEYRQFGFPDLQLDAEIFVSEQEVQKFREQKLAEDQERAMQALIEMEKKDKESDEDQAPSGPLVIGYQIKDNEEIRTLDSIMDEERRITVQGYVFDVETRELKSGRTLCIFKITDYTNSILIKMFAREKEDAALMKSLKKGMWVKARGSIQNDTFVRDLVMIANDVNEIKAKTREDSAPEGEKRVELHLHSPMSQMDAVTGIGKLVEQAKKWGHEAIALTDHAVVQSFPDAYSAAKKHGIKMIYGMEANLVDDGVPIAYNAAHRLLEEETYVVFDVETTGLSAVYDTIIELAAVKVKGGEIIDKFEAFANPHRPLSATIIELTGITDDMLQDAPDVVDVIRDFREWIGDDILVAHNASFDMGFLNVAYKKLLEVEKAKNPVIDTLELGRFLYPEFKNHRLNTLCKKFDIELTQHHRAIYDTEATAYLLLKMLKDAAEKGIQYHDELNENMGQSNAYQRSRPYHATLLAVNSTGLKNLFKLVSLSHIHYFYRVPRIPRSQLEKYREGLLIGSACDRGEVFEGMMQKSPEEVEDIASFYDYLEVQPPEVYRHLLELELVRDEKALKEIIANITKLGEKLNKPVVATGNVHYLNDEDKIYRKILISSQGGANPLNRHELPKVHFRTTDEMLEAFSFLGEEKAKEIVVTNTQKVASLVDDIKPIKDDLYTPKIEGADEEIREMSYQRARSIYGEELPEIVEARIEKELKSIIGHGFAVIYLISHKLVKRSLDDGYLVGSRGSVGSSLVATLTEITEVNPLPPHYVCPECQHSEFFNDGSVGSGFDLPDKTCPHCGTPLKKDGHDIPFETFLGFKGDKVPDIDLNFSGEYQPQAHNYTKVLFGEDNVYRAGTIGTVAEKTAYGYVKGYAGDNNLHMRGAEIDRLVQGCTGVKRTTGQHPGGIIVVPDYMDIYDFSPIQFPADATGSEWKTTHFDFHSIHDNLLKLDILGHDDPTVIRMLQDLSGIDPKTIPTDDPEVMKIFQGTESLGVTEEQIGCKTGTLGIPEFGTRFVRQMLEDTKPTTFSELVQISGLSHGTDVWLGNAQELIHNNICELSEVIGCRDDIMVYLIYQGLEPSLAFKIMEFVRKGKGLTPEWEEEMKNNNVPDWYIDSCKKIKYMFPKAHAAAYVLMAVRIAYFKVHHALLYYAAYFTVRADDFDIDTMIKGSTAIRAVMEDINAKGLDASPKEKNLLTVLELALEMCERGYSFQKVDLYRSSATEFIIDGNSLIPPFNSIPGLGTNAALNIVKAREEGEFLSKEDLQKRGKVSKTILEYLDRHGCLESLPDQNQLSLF
# Chain of B.s. pol IIIE (O34623 whole entry): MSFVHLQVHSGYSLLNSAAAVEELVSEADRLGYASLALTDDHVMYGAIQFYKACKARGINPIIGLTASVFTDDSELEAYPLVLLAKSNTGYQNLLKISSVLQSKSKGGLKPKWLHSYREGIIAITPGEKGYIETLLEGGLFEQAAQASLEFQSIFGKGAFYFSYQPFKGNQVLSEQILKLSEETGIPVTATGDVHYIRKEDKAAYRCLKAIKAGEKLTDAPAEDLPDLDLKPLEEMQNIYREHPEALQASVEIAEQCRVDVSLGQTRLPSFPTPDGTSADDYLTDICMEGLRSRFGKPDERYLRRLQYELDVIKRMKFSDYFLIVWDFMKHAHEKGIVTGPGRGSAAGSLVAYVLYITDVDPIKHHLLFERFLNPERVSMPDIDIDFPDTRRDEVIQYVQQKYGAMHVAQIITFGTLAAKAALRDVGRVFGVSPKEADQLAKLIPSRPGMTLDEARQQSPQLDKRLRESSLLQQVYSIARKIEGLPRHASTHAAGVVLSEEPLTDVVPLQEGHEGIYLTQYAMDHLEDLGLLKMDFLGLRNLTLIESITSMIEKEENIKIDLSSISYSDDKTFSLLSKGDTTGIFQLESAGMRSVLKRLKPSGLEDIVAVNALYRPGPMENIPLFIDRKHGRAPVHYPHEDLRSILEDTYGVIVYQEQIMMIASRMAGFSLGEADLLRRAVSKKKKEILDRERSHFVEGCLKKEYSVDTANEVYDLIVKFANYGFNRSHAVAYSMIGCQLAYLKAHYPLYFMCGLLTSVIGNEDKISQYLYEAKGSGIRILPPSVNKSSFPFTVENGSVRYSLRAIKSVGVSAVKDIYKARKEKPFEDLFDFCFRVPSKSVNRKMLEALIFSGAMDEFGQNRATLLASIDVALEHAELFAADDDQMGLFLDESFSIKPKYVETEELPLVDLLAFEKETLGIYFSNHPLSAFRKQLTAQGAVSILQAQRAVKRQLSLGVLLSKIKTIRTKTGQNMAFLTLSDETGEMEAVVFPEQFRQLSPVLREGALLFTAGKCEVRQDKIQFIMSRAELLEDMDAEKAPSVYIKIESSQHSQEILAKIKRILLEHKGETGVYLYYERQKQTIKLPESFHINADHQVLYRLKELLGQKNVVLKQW
Structure (SMILES),Ki (B.s. pol IIIC; [2]),MIC (Bacillus subtilis),MIC (S.a. (Smith)),MIC (Enterococcus fecalis),MIC (Enterococcus fecium),MIC (Staphylococcus aureus),MIC (MRSA (B42876)),Papp (in vitro),further results
"O=c1[nH]c(NCc2ccc(Cl)c(Cl)c2)cc2[nH]cnc12 [Compound 1, 2-(3,4-Dichlorobenzylamino)-6-oxo-3-deazapurine]",2200 nM,–,–,–,–,–,–,–,"Ki (B.s. pol IIIE; [3]): 2500 nM; Ki (E.c. pol IIIE; truncated assay without dGTP, apparent Ki, read-out: Ki, E.c. pol IIIE): 176000 nM; MIC, B.s. (Bacillus subtilis): 40 µg/mL; MIC, S.a. (Staphylococcus aureus): 80 µg/mL; MIC, S.a. (Smith) (S.a. (Smith)): 80 µg/mL; MIC, MRSA (B42876) (MRSA (B42876)): 80 µg/mL; MIC, E. fecalis (Enterococcus fecalis): 80 µg/mL; MIC, E. fecium (Enterococcus fecium): 40 µg/mL; MIC, VRE [1]: 40 µg/mL"
"COCCCCn1cnc2cc(NCc3ccc(Cl)c(Cl)c3)[nH]c(=O)c21 [Compound 2, 2-(3,4-Dichlorobenzylamino)-6-oxo-7-(4-methoxybutyl)-3-deazapurine]",–,0.625 µg/mL,3.75 µg/mL,5 µg/mL,5 µg/mL,–,–,–,Ki (B.s. pol IIIC): 190 nM; Ki (B.s. pol IIIE): 370 nM; Ki (E.c. pol IIIE): 56000 nM
"O=c1[nH]c(NCc2ccc(Cl)c(Cl)c2)cc2ncn(CCCCN3CCOCC3)c12 [Compound 4, 2-(3,4-Dichlorobenzylamino)-6-oxo-7-(4-morpholinylbutyl)-3-deazapurine]",94 nM,–,–,–,–,–,–,–,"Ki (B.s. pol IIIE; [3]): 200 nM; MIC, B.s. (Bacillus subtilis): 7.5 µg/mL; MIC, S.a. (Staphylococcus aureus): 20 µg/mL; MIC, S.a. (Smith) (S.a. (Smith)): 10 µg/mL; MIC, MRSA (B42876) (MRSA (B42876)): 20 µg/mL; MIC, E. fecalis (Enterococcus fecalis): 20 µg/mL; MIC, E. fecium (Enterococcus fecium): 15 µg/mL; MIC, VRE [1]: 10 µg/mL"
"O=c1[nH]c(NCc2ccc(Cl)c(Cl)c2)cc2ncn(CCCCCN3CCOCC3)c12 [Compound 5, 2-(3,4-Dichlorobenzylamino)-6-oxo-7-(5-morpholinylpentyl)-3-deazapurine]",100 nM,–,–,–,–,–,–,–,"Ki (B.s. pol IIIE; [3]): 290 nM; MIC, B.s. (Bacillus subtilis): 10 µg/mL; MIC, S.a. (Staphylococcus aureus): 20 µg/mL; MIC, S.a. (Smith) (S.a. (Smith)): 20 µg/mL; MIC, MRSA (B42876) (MRSA (B42876)): 20 µg/mL; MIC, E. fecalis (Enterococcus fecalis): 20 µg/mL; MIC, E. fecium (Enterococcus fecium): 20 µg/mL; MIC, VRE [1]: 15 µg/mL"
"COCCCCn1c(C)nc2cc(NCc3ccc(Cl)c(Cl)c3)[nH]c(=O)c21 [Compound 6, 2-(3,4-Dichlorobenzylamino)-6-oxo-7-(4-methoxybutyl)-8-methyl-3-deazapurine]",–,2.5 µg/mL,7.5 µg/mL,10 µg/mL,10 µg/mL,10 µg/mL,7.5 µg/mL,–,Ki (B.s. pol IIIC): 1250 nM; Ki (B.s. pol IIIE): 2500 nM; Ki (E.c. pol IIIE): 426000 nM; MIC [1]: 10 µg/mL
"CC(=O)OCCCCn1cnc2nc(NCc3ccc(Cl)c(Cl)c3)[nH]c(=O)c21 [Compound 7, 7-(4-Acetoxybutyl)-2-(3,4-dichlorobenzylamino)-6-oxopurine]",66 nM,5 µg/mL,2.5 µg/mL,2.5 µg/mL,2.5 µg/mL,5 µg/mL,2.5 µg/mL,–,MIC [1]: 5 µg/mL
"O=c1[nH]c(NCc2ccc(Cl)c(Cl)c2)nc2ncn(CCCCO)c12 [Compound 8, 7-(4-Hydroxybutyl)-2-(3,4-dichlorobenzylamino)-6-oxopurine]",190 nM,15 µg/mL,25 µg/mL,10 µg/mL,7.5 µg/mL,–,30 µg/mL,–,–
"O=c1[nH]c(NCc2ccc(Cl)c(Cl)c2)nc2ncn(CCCCN3CCOCC3)c12 [Compound 10, 7-[4-(N-Morpholinyl)butyl]-2-(3,4-dichlorobenzylamino)-6-oxopurine]",51 nM,–,–,10 µg/mL,10 µg/mL,20 µg/mL,–,0.01 ×10⁻⁶ cm/s,–
"CC(=O)OCCCCCn1cnc2nc(NCc3ccc(Cl)c(Cl)c3)[nH]c(=O)c21 [Compound 11, 7-(5-Acetoxypentyl)-2-(3,4-dichlorobenzylamino)-6-oxopurine]",52 nM,–,–,1.25 µg/mL,1.25 µg/mL,2.5 µg/mL,–,–,–
"O=c1[nH]c(NCc2ccc(Cl)c(Cl)c2)nc2ncn(CCCCCO)c12 [Compound 12, 7-(5-Hydroxypentyl)-2-(3,4-dichlorobenzylamino)-6-oxopurine]",52 nM,–,–,5 µg/mL,10 µg/mL,20 µg/mL,–,–,–
"O=c1[nH]c(NCc2ccc(Cl)c(Cl)c2)nc2ncn(CCCCCI)c12 [Compound 13, 7-(5-Iodopentyl)-2-(3,4-dichlorobenzylamino)-6-oxopurine]",–,1.4 µg/mL,3.7 µg/mL,2.5 µg/mL,2.5 µg/mL,3.7 µg/mL,1.25 µg/mL,–,Ki (B.s. pol IIIC): 70 nM; Ki (B.s. pol IIIE): 88 nM; Ki (E.c. pol IIIE): 47000 nM; MIC [1]: 2.5 µg/mL
"CCc1cc(Nc2cc3ncn(CCCCOC)c3c(=O)[nH]2)ccc1C [Compound 15, 2-(3-Ethyl-4-methylphenylamino)-6-oxo-7-(4-methoxybutyl)-3-deazapurine]",–,2.5 µg/mL,–,10 µg/mL,10 µg/mL,–,10 µg/mL,–,"Ki (B.s. pol IIIC): 1500 nM; Ki, B.s. pol IIIE (B.s. pol IIIE; [4]): inact"
"CCc1cc(Nc2cc3ncn(CCCCN4CCOCC4)c3c(=O)[nH]2)ccc1C [Compound 16, 2-(3-Ethyl-4-methylphenylamino)-6-oxo-7-(4-morpholinylbutyl)-3-deazapurine]",1100 nM,–,–,–,–,–,–,–,"Ki, B.s. pol IIIE (B.s. pol IIIE; [4]): inact; Ki, E.c. pol IIIE (E.c. pol IIIE; [4]): inact; MIC, B.s. (Bacillus subtilis): 10 µg/mL; MIC, S.a. (Staphylococcus aureus): 40 µg/mL; MIC, S.a. (Smith) (S.a. (Smith)): 40 µg/mL; MIC, MRSA (B42876) (MRSA (B42876)): 30 µg/mL; MIC, E. fecalis (Enterococcus fecalis): >80 µg/mL; MIC, E. fecium (Enterococcus fecium): 20 µg/mL; MIC, VRE [1]: >80 µg/mL"
"CCc1cc(Nc2nc3ncn(CCCCO)c3c(=O)[nH]2)ccc1C [Compound 18, 7-(4-Hydroxybutyl)-2-(3-ethyl-4-methylphenylamino)-6-oxopurine]",470 nM,15 µg/mL,40 µg/mL,20 µg/mL,20 µg/mL,–,30 µg/mL,0.56 ×10⁻⁶ cm/s,"Ki, B.s. pol IIIE (B.s. pol IIIE; [4]): inact"
"CCc1cc(Nc2nc3ncn(CCCCCOC(C)=O)c3c(=O)[nH]2)ccc1C [Compound 19, 7-(5-Acetoxypentyl)-2-(3-ethyl-4-methylphenylamino)-6-oxopurine]",–,–,–,–,–,–,–,0.58 ×10⁻⁶ cm/s,–
"CCc1cc(Nc2nc3ncn(CCCCCO)c3c(=O)[nH]2)ccc1C [Compound 20, 7-(5-Hydroxypentyl)-2-(3-ethyl-4-methylphenylamino)-6-oxopurine]",280 nM,–,–,10 µg/mL,10 µg/mL,–,20 µg/mL,0.62 ×10⁻⁶ cm/s,–
"CCc1cc(Nc2nc3ncn(CCCCCOC)c3c(=O)[nH]2)ccc1C [Compound 22, 7-(5-Methoxypentyl)-2-(3-ethyl-4-methylphenylamino)-6-oxopurine]",–,1.25 µg/mL,–,5 µg/mL,10 µg/mL,–,–,–,Ki (B.s. pol IIIC): 260 nM; Ki (B.s. pol IIIE): 394000 nM
"CCc1cc(Nc2nc3ncn(CCCCCN4CCC(O)(c5ccc(Cl)c(C(F)(F)F)c5)CC4)c3c(=O)[nH]2)ccc1C [Compound 23, 7-{5-[4-hydroxy-4-(3-trifluoromethyl-4-chlorophenyl)piperidyl]pentyl}-2-(3-ethyl-4-methylphenylamino)-6-oxopurine]",130 nM,–,–,–,–,–,–,–,"Ki (B.s. pol IIIE; [3]): 38000 nM; MIC, B.s. (Bacillus subtilis): 2.5 µg/mL; MIC, S.a. (Staphylococcus aureus): 5 µg/mL; MIC, S.a. (Smith) (S.a. (Smith)): 5 µg/mL; MIC, MRSA (B42876) (MRSA (B42876)): 5 µg/mL; MIC, E. fecalis (Enterococcus fecalis): 5 µg/mL; MIC, E. fecium (Enterococcus fecium): 5 µg/mL; MIC, VRE [1]: 5 µg/mL"
"CC(C)NCC(O)COc1cccc2ccccc12 (centres unmarked) [Propranolol, reference compound]",–,–,–,–,–,–,–,19.3 ×10⁻⁶ cm/s,–
"CNC(=C[N+](=O)[O-])NCCSCc1ccc(CN(C)C)o1 [Ranitidine, reference compound]",–,–,–,–,–,–,–,0.27 ×10⁻⁶ cm/s,–

# Reference: US6926763B2, “Purine and isosteric antibacterial compounds” (GLSynthesis, Inc., priority 2002, dated 2005)
